From US8389526B2, “3-heteroarylmethyl-imidazo[1,2-b]pyridazin-6-yl derivatives” (Novartis AG, priority 2009, dated 2013)

Tests used:
[1] = biological target: T1, c-Met receptor tyrosine kinase, GST-c-Met(969-1390) (Homo sapiens, UniProt P08581); assay: EPK c-Met profiling assay (LanthaScreen TR-FRET kinase assay); format: biochemical; conditions: 2 μM ATP, 0.3 nM enzyme, 60 minutes at room temperature
T1 construct: made in house
Procedure, shortened: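 Recombinant GST-c-Met(969-1390) cytoplasmic domain, 0.3 nM, phosphorylating 50 nM Fluorescein-PolyEAY with 2 μM ATP, 10 mM MgCl2, 3 mM MnCl2, 60 min at room temperature. EDTA-stopped; phosphoproduct detected by TR-FRET with Tb-PY20 antibody, end-point read. Final compound 0.003-10 μM over 8 concentrations.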

[2] = biological target: T2, c-Met (Homo sapiens, UniProt P08581); assay: GTL-16 c-Met autophosphorylation measured by AlphaScreen detection; format: cell-based; conditions: GTL-16 cells, 1 h incubation, AlphaScreen p-c-Met; read-out: GTL-16 IC50 c-Met phosphorylation
T2 construct: adapted to measure the phosphorylation of endogenous cellular proteins in cell lysates; endogenous in cells; host or cells: GTL-16
Protocol: C-Met Dependent Cellular Assays
A number of compounds of the present invention were assayed in a c-Met dependent proliferation and phosphorylation assay as follows.
GTL-16 c-Met autophosphorylation measured by AlphaScreen® detection: the human MET-amplified gastric cancer cells GTL-16 were plated in 384-well plates at a density of 10′000 cells in 20 ul complete growth medium (DMEM high glucose supplemented with 10% (v/v) heat inactivated fetal calf serum and of 1 mM sodium pyruvate) and were incubated at […]/5% CO2/95% humidity for 20 h. The cells were washed and the 30 ul assay buffer (DMEM high glucose, 1 mM sodium pyruvate, 0.1% bovine serum albumine) was added. Compounds were diluted in 384-well compound plates to obtain 8-point serial dilutions for 40 test compounds in 90% DMSO, as well as a reference compound plus 16 high- and 16 low (inhibited) controls. These compound plates were prediluted 1:200 in assay buffer into a compound predilution plate and 10 ul of prediluted compound solution were transferred to the cell plate using a 384-well pipettor, resulting in a final DMSO concentration of 0.11%. Cells were incubated for 1 h at […]/5% CO2/95% humidity. The supernatant was removed, the cells were lysed in 25 ul of RIPA [radio immuno precipitation assay] lysis buffer supplemented with 2 mM sodium vanadate and a protease inhibitor cocktail, and cell plates were stored at −80° C.
For detection of p-c-Met, an AlphaScreen®-based assay was used. AlphaScreen® (Amplified Luminescent Proximity Homogeneous Assay, ALPHA, Perkin Elmer, U.S.A) is a non-radioactive bead-based proximity assay technology to study biomolecular interactions in a homogenous microtiter plate format. This technique has been adapted to measure the phosphorylation of endogenous cellular proteins in cell lysates by the use of specific antibody pairs against the total protein and a phospho-specific epitope. 5 ul of cell lysate was transferred to 384-well low volume Proxiplates for detection using a 384-well pipettor. First, 5 ul of a premix of an anti-c-Met antibody (0.25 ug/ml f.c.), a biotinylated PY20 antibody (phosphotyrosine antibody, 0.05 ug/ml f.c.) and AlphaScreen® Protein A-coupled acceptor beads (10 ug/ml f.c.) in RIPA buffer supplemented with 0.25% (v/w) TOP BLOCK, 2 mM sodium vanadate, and a protease inhibitor cocktail and was added, the plate was sealed, and incubated on a plate shaker for 2 hours at room temperature. Second, 2 ul of dilution buffer containing AlphaScreen® Streptavidin-coated donor beads (10 ug/ml f.c.) in RIPA buffer was added, and the plate was incubated on plate shaker as above for a further 2 hours. The plate was read on an AlphaScreen® compatible plate reader, using standard AlphaScreen® settings.

[3] = test system: MET-amplified gastric cancer cell line GTL-16; assay: GTL-16 proliferation assay (MTS); format: cell-based; conditions: Homo sapiens, GTL-16 cells, 72 h incubation
Procedure, shortened: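 GTL-16 cells were seeded at 3000/well in DMEM with 10% FCS. After 24 h they were treated in triplicate with a 10-point, 3-fold dilution series ([…]; DMSO-only control) for 72 h. Viable cells were measured by MTS, with OD 490 nm read after 30 min.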

T1 sequence (P08581 969-1390): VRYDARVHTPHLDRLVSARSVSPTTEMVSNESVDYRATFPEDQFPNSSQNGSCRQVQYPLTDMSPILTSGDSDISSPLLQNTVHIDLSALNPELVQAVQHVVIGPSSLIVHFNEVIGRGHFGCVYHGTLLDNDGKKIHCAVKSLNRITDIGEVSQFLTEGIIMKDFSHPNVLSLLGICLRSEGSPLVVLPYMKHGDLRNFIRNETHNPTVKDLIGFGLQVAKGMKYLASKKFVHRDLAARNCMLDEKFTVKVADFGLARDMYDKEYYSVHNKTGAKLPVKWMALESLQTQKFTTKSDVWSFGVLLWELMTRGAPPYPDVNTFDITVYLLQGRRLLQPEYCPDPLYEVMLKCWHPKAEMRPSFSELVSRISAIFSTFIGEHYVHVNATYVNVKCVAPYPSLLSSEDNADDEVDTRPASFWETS
T2 sequence (P08581 25-1390): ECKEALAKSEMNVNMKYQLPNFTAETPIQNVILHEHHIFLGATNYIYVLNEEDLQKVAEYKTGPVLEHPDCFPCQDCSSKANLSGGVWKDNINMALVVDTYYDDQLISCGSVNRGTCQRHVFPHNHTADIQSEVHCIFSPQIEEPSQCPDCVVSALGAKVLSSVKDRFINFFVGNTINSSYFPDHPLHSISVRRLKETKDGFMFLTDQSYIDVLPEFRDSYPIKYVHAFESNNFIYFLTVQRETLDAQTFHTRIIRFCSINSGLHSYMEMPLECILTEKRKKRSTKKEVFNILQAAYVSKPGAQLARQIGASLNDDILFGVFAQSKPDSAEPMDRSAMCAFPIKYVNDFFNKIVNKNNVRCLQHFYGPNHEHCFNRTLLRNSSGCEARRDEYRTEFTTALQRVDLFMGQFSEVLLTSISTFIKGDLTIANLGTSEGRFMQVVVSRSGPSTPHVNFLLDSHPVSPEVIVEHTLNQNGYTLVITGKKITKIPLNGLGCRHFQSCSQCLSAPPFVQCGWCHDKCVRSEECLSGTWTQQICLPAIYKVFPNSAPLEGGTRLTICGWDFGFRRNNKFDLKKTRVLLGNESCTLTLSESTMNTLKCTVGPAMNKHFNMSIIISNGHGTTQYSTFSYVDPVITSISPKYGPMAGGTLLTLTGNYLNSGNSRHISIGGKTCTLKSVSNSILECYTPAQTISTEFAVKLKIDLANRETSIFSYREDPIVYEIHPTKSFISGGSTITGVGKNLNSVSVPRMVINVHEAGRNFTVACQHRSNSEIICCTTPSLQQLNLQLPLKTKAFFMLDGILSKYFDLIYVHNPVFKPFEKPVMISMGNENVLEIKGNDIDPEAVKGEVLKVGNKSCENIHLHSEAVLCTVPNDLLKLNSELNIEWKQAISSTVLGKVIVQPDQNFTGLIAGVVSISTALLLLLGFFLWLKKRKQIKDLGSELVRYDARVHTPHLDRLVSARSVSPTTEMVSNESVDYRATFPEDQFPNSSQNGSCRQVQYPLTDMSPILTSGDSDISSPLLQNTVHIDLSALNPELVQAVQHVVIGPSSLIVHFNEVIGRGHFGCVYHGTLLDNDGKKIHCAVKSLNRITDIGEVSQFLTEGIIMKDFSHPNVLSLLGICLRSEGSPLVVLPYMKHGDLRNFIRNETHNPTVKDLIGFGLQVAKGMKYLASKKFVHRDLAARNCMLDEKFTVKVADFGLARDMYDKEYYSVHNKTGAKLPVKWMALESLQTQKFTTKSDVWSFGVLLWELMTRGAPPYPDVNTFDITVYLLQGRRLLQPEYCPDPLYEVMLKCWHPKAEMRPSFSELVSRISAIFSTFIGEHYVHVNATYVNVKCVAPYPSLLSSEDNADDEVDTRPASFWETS

SMILES	IC50 [1] [nM]	IC50 [2] [nM]	IC50 [3] [nM]
C[C@@H](c1c(F)cc2ncccc2c1F)c1cnc2ccc(N3CCN(C=O)CC3)nn12 [Example 13, 4-{3-[(S)-1-(5,7-Difluoro-quinolin-6-yl)-ethyl]-imidazo[1,2-b]pyridazin-6-yl}-piperazine-1-carbaldehyde]	< 3	2.5	9.2
C[C@@H](c1c(F)cc2ncccc2c1F)c1cnc2ccc(N3CCN(C(N)=O)CC3)nn12 [Example 16, 4-{3-[(S)-1-(5,7-Difluoro-quinolin-6-yl)-ethyl]-imidazo[1,2-b]pyridazin-6-yl}-piperazine-1-carboxylic acid amide]	1.7	5.5	15
C[C@@H](c1cc2cnn(C)c2cc1F)c1cnc2ccc(N3CCN(C)C(=O)C3)nn12 [Example 26, 4-{3-[(S)-1-(6-Fluoro-1-methyl-1H-indazol-5-yl)-ethyl]-imidazo[1,2-b]pyridazin-6-yl}-1-methyl-piperazin-2-one]	26	10	66
CC(=O)N1CCN(c2ccc3ncc([C@@H](C)c4cc5cnn(C)c5cc4F)n3n2)CC1 [Example 29, 1-(4-{3-[(S)-1-(6-Fluoro-1-methyl-1H-indazol-5-yl)-ethyl]-imidazo[1,2-b]pyridazin-6-yl}-piperazin-1-yl)-ethanone]	55	25	136
CN1CCN(c2ccc3ncc(Cc4c(F)cc5ncccc5c4F)n3n2)CC1=O [Example 30, 4-[3-(5,7-Difluoro-quinolin-6-ylmethyl)-imidazo[1,2-b]pyridazin-6-yl]-1-methyl-piperazin-2-one]	6.6	< 3	37
O=C1CN(c2ccc3ncc(Cc4c(F)cc5ncccc5c4F)n3n2)CCN1 [Example 31, 4-[3-(5,7-Difluoro-quinolin-6-ylmethyl)-imidazo[1,2-b]pyridazin-6-yl]-piperazin-2-one]	8.2	4.7	15
Fc1cc2ncccc2c(F)c1Cc1cnc2ccc(N3CCNCC3)nn12 [Example 32, 5,7-Difluoro-6-(6-piperazin-1-yl-imidazo[1,2-b]pyridazin-3-ylmethyl)-quinoline]	7.4	< 3	25
CN1CCN(c2ccc3ncc(Cc4c(F)cc5ncccc5c4F)n3n2)CC1 [Example 33, 5,7-Difluoro-6-[6-(4-methyl-piperazin-1-yl)-imidazo[1,2-b]pyridazin-3-ylmethyl]-quinoline]	14	9	46
CC(=O)N1CCN(c2ccc3ncc(Cc4c(F)cc5ncccc5c4F)n3n2)CC1 [Example 34, 1-{4-[3-(5,7-Difluoro-quinolin-6-ylmethyl)-imidazo[1,2-b]pyridazin-6-yl]-piperazin-1-yl}-ethanone]	10	7	65
O=CN1CCN(c2ccc3ncc(Cc4c(F)cc5ncccc5c4F)n3n2)CC1 [Example 35, 4-[3-(5,7-Difluoro-quinolin-6-ylmethyl)-imidazo[1,2-b]pyridazin-6-yl]-piperazine-1-carbaldehyde]	9.9	8	45
COC(=O)N1CCN(c2ccc3ncc(Cc4c(F)cc5ncccc5c4F)n3n2)CC1 [Example 36, 4-[3-(5,7-Difluoro-quinolin-6-ylmethyl)-imidazo[1,2-b]pyridazin-6-yl]-piperazine-1-carboxylic acid methyl ester]	11	< 3	25
O=C1CN(c2ccc3ncc(Cc4ccc5ncccc5c4F)n3n2)CCN1 [Example 44, 4-[3-(5-Fluoro-quinolin-6-ylmethyl)-imidazo[1,2-b]pyridazin-6-yl]-piperazin-2-one]	14	31	133
C[C@@H](c1c(F)cc2c(cnn2C)c1F)c1cnc2ccc(N3CCN(C)C(=O)C3)nn12 [Example 50, 4-{3-[(S)-1-(4,6-Difluoro-1-methyl-1H-indazol-5-yl)-ethyl]-imidazo[1,2-b]pyridazin-6-yl}-1-methyl-piperazin-2-one]	8.3	2.7	11
C[C@@H](c1c(F)cc2c(cnn2C)c1F)c1cnc2ccc(N3CCNC(=O)C3)nn12 [Example 52, 4-{3-[(S)-1-(4,6-Difluoro-1-methyl-1H-indazol-5-yl)-ethyl]-imidazo[1,2-b]pyridazin-6-yl}-piperazin-2-one]	< 3	2.2	11
CC(=O)N1CCN(c2ccc3ncc([C@@H](C)c4c(F)cc5c(cnn5C)c4F)n3n2)CC1 [Example 53, 1-(4-{3-[(S)-1-(4,6-Difluoro-1-methyl-1H-indazol-5-yl)-ethyl]-imidazo[1,2-b]pyridazin-6-yl}-piperazin-1-yl)-ethanone]	5.2	4.4	22
Cn1ncc2c(F)c(Cc3cnc4ccc(N5CCNC(=O)C5)nn34)c(F)cc21 [Example 54, 4-[3-(4,6-Difluoro-1-methyl-1H-indazol-5-ylmethyl)-imidazo[1,2-b]pyridazin-6-yl]-piperazin-2-one]	20	< 3	36
C[C@@H](c1c(F)cc2ncccc2c1F)c1cnc2ccc(N3CCNC(=O)[C@H]3C)nn12 [Example 59, (R)-4-{3-[(S)-1-(5,7-Difluoro-quinolin-6-yl)-ethyl]-imidazo[1,2-b]pyridazin-6-yl}-3-methyl-piperazin-2-one]	3	3.6	5.6
C[C@@H](c1c(F)cc2ncccc2c1F)c1cnc2ccc(N3CCNC(=O)[C@@H]3C)nn12 [Example 60, (S)-4-{3-[(S)-1-(5,7-Difluoro-quinolin-6-yl)-ethyl]-imidazo[1,2-b]pyridazin-6-yl}-3-methyl-piperazin-2-one]	2.6	2.3	4.8
